The source made the active and inactive calls.
Experiments:
[1] = molecular target: T1, V-type proton ATPase subunit c' (Saccharomyces cerevisiae S288c, UniProt P32842); experiment: Dose Response with BCECF Assay for V-ATPase inhibitors that increase vacuolar pH, Powder Set 1.; format: functional; details: read-out: EC50_MICROM
[2] = molecular target: T1, V-type proton ATPase subunit c'; experiment: Dose Response of Small Molecules that Regulate V-ATPase Proton Transport in Yeast using pHLuorin, Powder Set1.; format: functional; details: read-out: EC50_MICROM
[3] = Trypanosoma cruzi growth suppression in host cells – NIH3T3 host cells, beta-gal luminescence, confirmation (AID 2044); format: functional, cell-based;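 note: intracellular parasites grown in NIH/3T3 mouse fibroblasts as host cells; luminescent beta-galactosidase reporter signal from transgenic T. cruzi replicating inside host cells; inhibitors lower the luminescence signal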
[4] = NIH3T3 cell viability loss – ATP luminescence, mouse fibroblasts, counter-screen, dose response (AID 2010); format: functional, cell-based;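 note: cells exposed to compound for about 90 hours before reading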
[5] = Luminescence Cell-Based Dose Retest to Confirm Inhibitors of Cancer Stem Cells. [Related pubchem assays (depositor defined):AID2717, AID2721]; format: functional; details: Homo sapiens
[6] = molecular target: T2, Microphthalmia-associated transcription factor (Homo sapiens, UniProt O75030); experiment: reducers of TRPM1 reporter luminescence, concentration series – cell-based, SK-MEL-5, cherry-picked, set 3, MITF inhibitor project, dose response (AID 493073); format: functional;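 note: SK-MEL-5 melanoma cells with luciferase driven by the MITF target TRPM1 promoter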
T2 sequence (O75030 whole entry): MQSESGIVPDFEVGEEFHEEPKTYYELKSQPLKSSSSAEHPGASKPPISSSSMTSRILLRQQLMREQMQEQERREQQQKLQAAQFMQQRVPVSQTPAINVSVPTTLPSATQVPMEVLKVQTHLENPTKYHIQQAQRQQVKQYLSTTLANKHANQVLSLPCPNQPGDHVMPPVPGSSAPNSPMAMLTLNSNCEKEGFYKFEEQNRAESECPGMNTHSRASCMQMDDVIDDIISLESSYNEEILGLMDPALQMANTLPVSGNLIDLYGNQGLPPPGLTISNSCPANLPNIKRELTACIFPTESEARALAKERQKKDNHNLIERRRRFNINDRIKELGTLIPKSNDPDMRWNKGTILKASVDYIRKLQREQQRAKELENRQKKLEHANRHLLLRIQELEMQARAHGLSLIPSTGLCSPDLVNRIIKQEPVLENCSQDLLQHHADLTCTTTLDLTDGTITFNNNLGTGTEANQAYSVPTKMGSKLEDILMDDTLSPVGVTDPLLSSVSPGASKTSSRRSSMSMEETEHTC

A-375 [7] = experiment: MITF: Counter assay: A375 proliferation Measured in Cell-Based System Using Plate Reader - 2084-03_Inhibitor_Dose_DryPowder_Activity. [Related pubchem assays (depositor defined):AID488944]; format: functional; details: Homo sapiens
A-375 [8] = experiment: proliferation inhibition in MITF-low A375 cells – cell-based, cherry-pick samples, set 2, counter-screen for MITF modulator project, dose response (AID 540335); format: functional; details: Homo sapiens
[9] = reduction of Shn3 3'UTR-driven luciferase in osteoblasts – cell-based, Clone20 osteoblasts, firefly luciferase, cherry-picked, dose response (AID 624132); format: functional;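 note: firefly luciferase luminescence from reporter carrying the Shn3 3'UTR in osteoblasts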
[10] = loss of viability in HepG2 cells – cell-based, CellTiter-Glo, cherry-picked, cytotoxicity control for Shn3 inhibitor project, dose response (AID 624134); format: functional
[11] = non-specific 3'UTR reporter inhibition in Clone20-Shn3RL – cell-based, Renilla luciferase, cherry-picked, counter-screen for Shn3 inhibitor project, dose response (AID 624133); format: functional
[12] = molecular target: T3, RNA-binding protein pos-1 (Caenorhabditis elegans, UniProt G5EF15); experiment: disruptors of C. elegans POS-1 RNA interaction – biochemical, fluorescence polarization, dose response (AID 1964);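 note: purified POS-1 fused to maltose binding protein made in E. coli; potency of compounds blocking POS-1 binding to fluorescent RNA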
T3 sequence (G5EF15 whole entry): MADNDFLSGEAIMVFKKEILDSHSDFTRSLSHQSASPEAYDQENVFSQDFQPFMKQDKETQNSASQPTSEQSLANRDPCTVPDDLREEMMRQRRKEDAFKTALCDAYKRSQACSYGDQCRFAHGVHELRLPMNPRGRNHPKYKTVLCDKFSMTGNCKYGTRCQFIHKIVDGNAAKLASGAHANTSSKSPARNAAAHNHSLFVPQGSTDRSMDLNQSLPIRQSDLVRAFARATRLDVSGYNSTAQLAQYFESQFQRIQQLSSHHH

[13] = molecular target: T4, Zinc finger protein mex-5 (Caenorhabditis elegans, UniProt Q9XUB2); experiment: potency of MEX-5 RNA-binding blockers – biochemical, C. elegans, fluorescence polarization, dose response (AID 1960)
T4 sequence (Q9XUB2 whole entry): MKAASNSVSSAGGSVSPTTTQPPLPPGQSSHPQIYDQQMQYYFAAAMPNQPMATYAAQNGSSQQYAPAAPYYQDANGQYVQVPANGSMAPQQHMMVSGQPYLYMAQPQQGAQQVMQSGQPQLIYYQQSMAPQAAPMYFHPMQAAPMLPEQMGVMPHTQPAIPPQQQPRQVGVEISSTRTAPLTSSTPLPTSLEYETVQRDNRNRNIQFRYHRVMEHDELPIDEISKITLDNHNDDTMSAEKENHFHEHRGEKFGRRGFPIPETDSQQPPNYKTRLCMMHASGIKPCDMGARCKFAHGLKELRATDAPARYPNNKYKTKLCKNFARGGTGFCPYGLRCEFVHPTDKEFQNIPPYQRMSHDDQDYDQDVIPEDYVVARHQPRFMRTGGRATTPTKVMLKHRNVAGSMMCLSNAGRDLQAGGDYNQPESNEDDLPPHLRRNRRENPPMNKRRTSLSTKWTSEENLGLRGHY

[14] = molecular target: Corticotropin-releasing factor receptor 2/Corticotropin-releasing factor-binding protein (Homo sapiens, UniProt Q13324+P24387); experiment: activators of CRF receptor 2 with binding protein – uHTS hits, confirmation (AID 602473); format: functional; details: read-out: EC50_Mean
Cytochrome P450 3A4 = Cytochrome P450 3A4 (Homo sapiens, UniProt P08684);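 note: CYP3A4 tested as one member of a cytochrome P450 panel screen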
Cytochrome P450 2C9 = Cytochrome P450 2C9 (Homo sapiens, UniProt P11712)
[15] = HEK-293T viability loss after treatment – luminescence, T-cell screen hits, cytotoxicity control for TCR NF-kB inhibitor project, dose response (AID 489026); format: functional, cell-based;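 note: cells exposed to compound about 14 hours before the viability readout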
[16] = molecular target: T5, Heat shock factor protein 1 (Mus musculus, UniProt P38532); experiment: enhancement of HSF1-driven luciferase signal – cell-based, NIH3T3, luminescence, dose retest, confirmation (AID 435004); format: functional;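 note: stress induced by proteasome inhibitor MG132 added 30 min after compound; luciferase reporter driven by HSF1 response element in NIH3T3 cells; actives raise luminescence as potentiators of the MG132 stress response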
T5 sequence (P38532 whole entry): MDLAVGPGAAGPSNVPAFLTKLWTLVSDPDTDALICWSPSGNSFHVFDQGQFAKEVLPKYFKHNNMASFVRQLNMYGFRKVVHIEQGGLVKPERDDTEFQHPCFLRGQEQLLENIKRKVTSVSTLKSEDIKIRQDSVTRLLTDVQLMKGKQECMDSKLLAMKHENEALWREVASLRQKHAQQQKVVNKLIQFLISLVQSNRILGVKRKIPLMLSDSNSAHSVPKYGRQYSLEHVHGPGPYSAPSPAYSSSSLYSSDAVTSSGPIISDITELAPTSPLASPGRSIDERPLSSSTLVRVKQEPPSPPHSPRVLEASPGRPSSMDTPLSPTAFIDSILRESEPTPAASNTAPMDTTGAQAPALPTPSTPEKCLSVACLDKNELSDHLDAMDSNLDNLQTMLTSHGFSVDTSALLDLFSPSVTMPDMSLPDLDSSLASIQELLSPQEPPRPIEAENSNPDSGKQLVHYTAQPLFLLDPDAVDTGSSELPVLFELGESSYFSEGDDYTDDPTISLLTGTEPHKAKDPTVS

[17] = molecular target: Heat shock protein HSP 90-alpha (Homo sapiens, UniProt P07900); format: functional, organism-based
INS1 = experiment: INS-1E survival protection against cytokine death – cell-based, luminescence, retest, dose response (AID 449756); format: functional; details: Rattus norvegicus;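 note: cell death triggered by IL-1 beta plus TNF-alpha plus IFN-gamma mixture; protective hits raise ATP signal compared with cytokine alone wells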
Phospholipase D1 = Phospholipase D1 (Homo sapiens, UniProt Q13393); experiment: cellular phospholipase D1 inhibition IC50 – cell-based, dose response (AID 602151); format: functional;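 note: cellular PLD1 assay in Calu-1 cells stimulated with PMA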
Phospholipase D2 = Phospholipase D2 (Homo sapiens, UniProt O14939); experiment: cellular phospholipase D2 inhibition IC50 – cell-based, dose response (AID 602147); format: functional;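 note: cellular assay in HEK293 cells overexpressing GFP-tagged PLD2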
[18] = molecular target: Protein kinase C delta type (Homo sapiens, UniProt Q05655); format: functional
[19] = molecular target: Calcium/calmodulin-dependent protein kinase type II subunit gamma (Homo sapiens, UniProt Q13555); format: functional
[20] = molecular target: Calcium/calmodulin-dependent protein kinase type II subunit beta (Homo sapiens, UniProt Q13554); format: functional
Aurora kinase B = Aurora kinase B (Homo sapiens, UniProt Q96GD4); format: functional
[21] = molecular target: 26S proteasome non-ATPase regulatory subunit 14 (Homo sapiens, UniProt O00487); experiment: inhibition of proteasome subunit RPN11 – biochemical, fluorescence polarization, uHTS hits, confirmation (AID 602368); format: functional
[22] = molecular target: 72 kDa type IV collagenase (Homo sapiens, UniProt P08253); experiment: Dose Response validation of uHTS RPN11 inhibitor hits using a MMP-2 Fluorescence assay.; format: functional
Prothrombin = Prothrombin (Bos taurus, UniProt P00735); experiment: thrombin protease inhibitors – biochemical, fluorescence polarization, uHTS hits, dose response (AID 602369); format: functional
[23] = molecular target: Luciferin 4-monooxygenase (Photinus pyralis, UniProt P08659); experiment: inhibition of purified Photinus pyralis luciferase – biochemical, luminescence, dose response (AID 1891)
[24] = Luminescence Cell-Based Dose Confirmation HTS to Identify Inhibitors of Platelet Dense Granule Release. [Related pubchem assays: 1663 (Primary HTS), 1678 (Summary of Project)]; format: functional
[25] = PAR1 agonist-induced platelet activation inhibition – cell-based, fluorescence, flow cytometry, human platelets, dose response (AID 2511); format: functional
[26] = SFLLRN-induced P-Selectin Platelet Surface Expression Measured in Cell-Based System Using Flow Cytometry - 2016-03_Inhibitor_Dose_DryPowder_Activity_Set3. [Related pubchem assays (depositor defined):AID1678]; format: functional
[27] = blockers of SFLLRN-triggered platelet ATP secretion – cell-based, human platelets, luminescence, dry powder, dose response (AID 493100); format: functional
[28] = Luminescence Cell-Based Dose Response Follow up to Identify Inhibitors of Platelet Dense Granule Release. [Related pubchem assays (depositor defined):AID1663, AID1678, AID1889, AID2519]; format: functional
CAAX prenyl protease 2 = CAAX prenyl protease 2 (Homo sapiens, UniProt Q9Y256); experiment: inhibition of Ras-converting CAAX protease Rce1 – biochemical, yeast membranes, quenched-peptide fluorescence, cherry-pick, dose response (AID 588849)
[29] = molecular target: Serine/threonine-protein kinase pim-1 (Homo sapiens, UniProt P11309); format: functional
[30] = molecular target: Cell division cycle 7-related protein kinase (Homo sapiens, UniProt O00311); format: functional;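 note: value obtained from a kinome-wide kinase panel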
[31] = molecular target: Homeodomain-interacting protein kinase 2 (Homo sapiens, UniProt Q9H2X6); format: functional;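 note: measured within a kinome-wide kinase profiling panel, HIPK2 being one panel member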
[32] = molecular target: Interleukin-1 receptor-associated kinase 4 (Homo sapiens, UniProt Q9NWZ3); format: functional
[33] = molecular target: Glycogen synthase kinase-3 beta (Homo sapiens, UniProt P49841); format: functional;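 note: value comes from a broad kinome profiling panel, with GSK3B as the panel member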
[34] = molecular target: cAMP-dependent protein kinase catalytic subunit alpha (Homo sapiens, UniProt P17612); format: functional
[35] = molecular target: Dual specificity protein kinase CLK4 (Homo sapiens, UniProt Q9HAZ1); format: functional
[36] = molecular target: Mitogen-activated protein kinase kinase kinase kinase 4 (Homo sapiens, UniProt O95819); format: functional

T1 sequence (P32842 whole entry): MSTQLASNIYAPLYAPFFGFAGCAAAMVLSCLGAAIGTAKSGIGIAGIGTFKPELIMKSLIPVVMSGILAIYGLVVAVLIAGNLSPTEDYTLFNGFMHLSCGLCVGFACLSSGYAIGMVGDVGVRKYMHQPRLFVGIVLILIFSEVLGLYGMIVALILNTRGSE
Homeodomain-interacting protein kinase 2, sequence (Q9H2X6 whole entry): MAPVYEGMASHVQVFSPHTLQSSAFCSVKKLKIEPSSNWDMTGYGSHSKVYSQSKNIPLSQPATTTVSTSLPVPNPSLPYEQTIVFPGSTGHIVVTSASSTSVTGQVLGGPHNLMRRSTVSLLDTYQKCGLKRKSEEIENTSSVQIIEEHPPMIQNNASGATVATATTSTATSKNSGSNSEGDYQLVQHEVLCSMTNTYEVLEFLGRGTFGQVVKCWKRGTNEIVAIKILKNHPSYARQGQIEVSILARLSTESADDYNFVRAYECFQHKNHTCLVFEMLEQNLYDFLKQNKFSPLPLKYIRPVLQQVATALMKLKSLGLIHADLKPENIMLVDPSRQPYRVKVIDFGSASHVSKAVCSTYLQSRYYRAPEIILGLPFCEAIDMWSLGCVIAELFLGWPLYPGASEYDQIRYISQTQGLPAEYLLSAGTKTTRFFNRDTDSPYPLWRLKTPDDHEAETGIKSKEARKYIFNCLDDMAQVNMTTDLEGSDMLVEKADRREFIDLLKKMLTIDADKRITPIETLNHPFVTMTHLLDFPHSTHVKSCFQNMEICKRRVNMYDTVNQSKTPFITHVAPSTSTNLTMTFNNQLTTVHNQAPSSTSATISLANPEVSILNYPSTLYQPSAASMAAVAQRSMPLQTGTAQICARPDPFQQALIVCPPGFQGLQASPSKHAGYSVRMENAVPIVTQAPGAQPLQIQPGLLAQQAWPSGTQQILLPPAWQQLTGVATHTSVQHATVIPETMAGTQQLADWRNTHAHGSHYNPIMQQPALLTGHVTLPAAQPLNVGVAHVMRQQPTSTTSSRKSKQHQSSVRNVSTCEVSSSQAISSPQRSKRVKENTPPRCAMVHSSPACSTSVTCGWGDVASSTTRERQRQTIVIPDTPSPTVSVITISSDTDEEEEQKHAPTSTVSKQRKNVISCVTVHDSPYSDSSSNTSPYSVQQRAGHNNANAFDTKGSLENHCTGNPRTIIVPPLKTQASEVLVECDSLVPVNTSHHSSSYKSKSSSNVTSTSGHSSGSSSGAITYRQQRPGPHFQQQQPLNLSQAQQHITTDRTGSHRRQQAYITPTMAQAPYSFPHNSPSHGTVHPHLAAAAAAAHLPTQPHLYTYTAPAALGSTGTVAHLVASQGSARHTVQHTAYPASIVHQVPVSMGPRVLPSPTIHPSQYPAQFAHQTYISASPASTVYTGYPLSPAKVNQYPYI
Luciferin 4-monooxygenase, sequence (P08659 whole entry): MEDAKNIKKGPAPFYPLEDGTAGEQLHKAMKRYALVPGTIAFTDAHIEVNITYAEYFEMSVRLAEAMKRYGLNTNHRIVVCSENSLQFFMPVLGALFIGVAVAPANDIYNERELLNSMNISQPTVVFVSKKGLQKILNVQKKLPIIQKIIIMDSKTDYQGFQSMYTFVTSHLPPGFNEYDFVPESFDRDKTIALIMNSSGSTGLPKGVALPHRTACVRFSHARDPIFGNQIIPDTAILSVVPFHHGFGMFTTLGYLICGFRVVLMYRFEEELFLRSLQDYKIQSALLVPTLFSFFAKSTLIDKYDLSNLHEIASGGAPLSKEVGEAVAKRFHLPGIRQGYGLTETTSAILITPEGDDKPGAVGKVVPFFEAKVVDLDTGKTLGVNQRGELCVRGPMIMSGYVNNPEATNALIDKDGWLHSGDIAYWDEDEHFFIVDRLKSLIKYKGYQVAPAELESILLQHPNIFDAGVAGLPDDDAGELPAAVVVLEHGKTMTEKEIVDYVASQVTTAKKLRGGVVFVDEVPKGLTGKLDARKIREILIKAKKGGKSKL
Serine/threonine-protein kinase pim-1, sequence (P11309 whole entry): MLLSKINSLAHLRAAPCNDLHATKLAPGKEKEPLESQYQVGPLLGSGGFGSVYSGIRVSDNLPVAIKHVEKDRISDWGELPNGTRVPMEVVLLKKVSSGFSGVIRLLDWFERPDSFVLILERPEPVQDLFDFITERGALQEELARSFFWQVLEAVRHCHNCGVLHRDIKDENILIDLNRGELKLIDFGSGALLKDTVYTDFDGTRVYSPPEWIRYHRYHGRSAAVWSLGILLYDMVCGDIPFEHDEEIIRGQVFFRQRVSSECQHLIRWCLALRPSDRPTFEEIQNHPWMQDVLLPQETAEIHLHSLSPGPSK
72 kDa type IV collagenase, sequence (P08253 whole entry): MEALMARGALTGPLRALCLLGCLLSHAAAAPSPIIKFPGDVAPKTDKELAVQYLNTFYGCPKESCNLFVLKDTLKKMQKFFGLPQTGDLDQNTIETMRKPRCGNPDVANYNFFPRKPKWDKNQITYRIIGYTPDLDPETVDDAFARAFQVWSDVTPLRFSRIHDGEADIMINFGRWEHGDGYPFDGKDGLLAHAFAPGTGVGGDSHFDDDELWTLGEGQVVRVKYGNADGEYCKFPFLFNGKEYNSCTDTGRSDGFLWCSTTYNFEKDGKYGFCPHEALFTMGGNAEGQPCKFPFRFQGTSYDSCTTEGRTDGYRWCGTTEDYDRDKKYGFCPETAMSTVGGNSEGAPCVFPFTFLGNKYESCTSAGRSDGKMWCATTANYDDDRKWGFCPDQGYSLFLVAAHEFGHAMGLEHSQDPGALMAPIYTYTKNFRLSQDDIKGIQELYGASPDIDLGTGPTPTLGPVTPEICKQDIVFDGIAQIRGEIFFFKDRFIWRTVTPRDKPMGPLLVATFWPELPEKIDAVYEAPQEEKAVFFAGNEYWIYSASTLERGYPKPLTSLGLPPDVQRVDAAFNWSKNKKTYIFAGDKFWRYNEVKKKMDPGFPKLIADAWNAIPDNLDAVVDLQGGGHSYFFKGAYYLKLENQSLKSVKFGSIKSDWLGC
Cytochrome P450 3A4, sequence (P08684 whole entry): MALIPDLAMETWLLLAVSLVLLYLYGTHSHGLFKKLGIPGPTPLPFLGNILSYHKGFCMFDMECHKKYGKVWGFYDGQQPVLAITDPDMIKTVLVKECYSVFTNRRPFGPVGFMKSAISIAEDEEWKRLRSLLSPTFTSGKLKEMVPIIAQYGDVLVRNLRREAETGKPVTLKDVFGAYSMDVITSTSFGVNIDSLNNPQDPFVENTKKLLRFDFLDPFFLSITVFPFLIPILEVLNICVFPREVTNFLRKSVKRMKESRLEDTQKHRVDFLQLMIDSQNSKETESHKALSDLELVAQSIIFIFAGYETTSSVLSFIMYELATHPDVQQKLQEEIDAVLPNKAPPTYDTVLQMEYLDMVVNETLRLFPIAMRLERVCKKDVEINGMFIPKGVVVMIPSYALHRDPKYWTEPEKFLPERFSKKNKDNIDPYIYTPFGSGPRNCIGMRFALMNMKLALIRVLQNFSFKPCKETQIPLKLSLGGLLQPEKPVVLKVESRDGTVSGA
Calcium/calmodulin-dependent protein kinase type II subunit gamma, sequence (Q13555 whole entry): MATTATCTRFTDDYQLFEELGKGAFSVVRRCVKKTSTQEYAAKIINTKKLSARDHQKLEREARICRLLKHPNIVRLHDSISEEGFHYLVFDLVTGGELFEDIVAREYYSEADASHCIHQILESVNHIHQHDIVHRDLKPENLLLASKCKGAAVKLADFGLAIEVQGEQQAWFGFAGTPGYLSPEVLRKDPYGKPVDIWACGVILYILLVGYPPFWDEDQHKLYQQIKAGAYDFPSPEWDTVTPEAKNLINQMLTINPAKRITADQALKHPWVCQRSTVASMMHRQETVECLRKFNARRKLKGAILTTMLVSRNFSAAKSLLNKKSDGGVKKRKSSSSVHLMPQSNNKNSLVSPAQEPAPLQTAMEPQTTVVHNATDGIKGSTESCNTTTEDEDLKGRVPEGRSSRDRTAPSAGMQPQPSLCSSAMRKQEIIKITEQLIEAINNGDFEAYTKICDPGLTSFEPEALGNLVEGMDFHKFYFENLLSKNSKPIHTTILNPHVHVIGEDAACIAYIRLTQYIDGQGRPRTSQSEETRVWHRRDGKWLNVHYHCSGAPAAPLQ
Interleukin-1 receptor-associated kinase 4, sequence (Q9NWZ3 whole entry): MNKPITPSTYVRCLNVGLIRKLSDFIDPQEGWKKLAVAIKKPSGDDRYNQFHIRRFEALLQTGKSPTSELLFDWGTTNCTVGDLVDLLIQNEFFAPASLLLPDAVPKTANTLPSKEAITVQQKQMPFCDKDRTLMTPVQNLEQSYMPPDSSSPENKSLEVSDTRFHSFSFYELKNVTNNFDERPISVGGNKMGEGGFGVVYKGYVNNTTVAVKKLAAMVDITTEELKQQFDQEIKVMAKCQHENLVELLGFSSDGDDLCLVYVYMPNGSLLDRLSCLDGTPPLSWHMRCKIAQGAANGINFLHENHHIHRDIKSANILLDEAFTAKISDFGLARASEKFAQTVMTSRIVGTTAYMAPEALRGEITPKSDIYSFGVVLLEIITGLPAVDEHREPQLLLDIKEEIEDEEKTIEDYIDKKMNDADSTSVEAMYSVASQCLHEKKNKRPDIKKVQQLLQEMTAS
Aurora kinase B, sequence (Q96GD4 whole entry): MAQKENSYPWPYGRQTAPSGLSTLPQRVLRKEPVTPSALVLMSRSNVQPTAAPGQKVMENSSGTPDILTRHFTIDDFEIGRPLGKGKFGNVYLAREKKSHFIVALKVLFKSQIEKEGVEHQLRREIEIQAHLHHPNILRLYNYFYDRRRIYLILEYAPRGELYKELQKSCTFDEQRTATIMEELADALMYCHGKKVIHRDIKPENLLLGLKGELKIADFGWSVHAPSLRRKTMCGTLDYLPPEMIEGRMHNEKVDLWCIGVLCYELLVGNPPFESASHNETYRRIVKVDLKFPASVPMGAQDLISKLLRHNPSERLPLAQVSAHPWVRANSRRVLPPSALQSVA

COc1ccccc1N1CCN(C(=O)c2ccc([N+](=O)[O-])o2)CC1
EC50 [1]: 24.3 µM (active) | EC50 [2]: 40.5 µM (active)

Cc1ccccc1C(=O)N1CCN(c2ccc(NC(=O)c3ccc([N+](=O)[O-])o3)cc2)CC1
EC50 [3]: 3.14 µM (active) | EC50 [4]: 3.84 µM (active) | AC50 [5]: 1.8 µM (active) | AC50 [6]: 6.2 µM (active) | AC50 (A-375 [7]): > 35 µM (active) | AC50 (A-375 [8]): > 35 µM (active) | AC50 [9]: 0.864 µM (active) | AC50 [10]: 20.5 µM (active) | AC50 [11]: 9.76 µM (active)

CCCCC1(C)OC(=O)C(=Cc2ccc(N(CC)CC)cc2)C(=O)O1 (centres undefined)
EC50 [12]: > 300 µM (not active) | EC50 [13]: > 300 µM (not active) | EC50 [14]: 7.59 µM (active) | AC50 (Cytochrome P450 3A4): 0.126 µM (inconclusive) | AC50 (Cytochrome P450 2C9): inconclusive

Cc1cccc(N=Nc2ccc(O)c3ncccc23)c1
IC50 [15]: > 80 µM (inactive) | EC50 [16]: 4.58 µM (active) | AC50 [17]: 3.91 µM (active) | AC50 (INS1): 1.78 µM (active)

C[C@@H](CN1CCC(n2c(=O)[nH]c3ccc(F)cc32)CC1)NC(=O)c1ccc(F)cc1
IC50 (Phospholipase D1): 0.002 µM (active) | IC50 (Phospholipase D2): 0.3 µM (active)

Cc1cc(C(=O)NCCOCCOCCN)ccc1-c1cccc2c(CCCOc3cccc4ccccc34)c(C(=O)O)[nH]c12
Ki [18]: 2.51 µM (active) | Ki [19]: 3.98 µM (active) | Ki [20]: 5.01 µM (active) | Ki (Aurora kinase B): 3.98 µM (active)

O=C1c2cccc3cccc(c23)C(=O)N1c1ccc2ncccc2c1
IC50 [21]: 23.9 µM (active) | IC50 [22]: 23 µM (active) | IC50 (Prothrombin): 82.1 µM (active)

CCC(=O)Nc1cccc(NC(=O)c2ccccc2Br)c1
EC50 [23]: > 112 µM (not active) | EC50 [24]: 4.32 µM (active) | EC50 [25]: < 1 µM (active) | AC50 [26]: < 3.12 µM (active) | AC50 [27]: 21.2 µM (active) | EC50 [28]: 14 µM (active)

Oc1ncccc1-c1nc2ccccc2n1Cc1cccc(Cl)c1
AC50 (CAAX prenyl protease 2): 5.23 µM (active)

CC(C)(C)Oc1cc(-c2ccncc2)cc2[nH]nc(N)c12
Ki [29]: 1.58 µM (active) | Ki [30]: 0.00251 µM (active) | Ki [31]: 0.398 µM (active) | Ki [32]: 0.251 µM (active) | Ki [33]: 0.631 µM (active) | Ki [34]: 0.158 µM (active) | Ki [35]: 0.0126 µM (active) | Ki [36]: 0.251 µM (active)
